Assay results taken from patent US10927115B2, “Substituted heterocycles for targeting Hsp90” (Duke University, priority 2012, dated 2021).

Assays:
Hsp90 and GRP94 = assay: Purinome captured on ATP Sepharose interrogated with compounds in parallel; eluted proteins identified by MS; format: binding, pig; conditions: FIG. 3; SDS-PAGE silver staining, mass spectrometry
Description: The purinome was captured from pig mammary gland extract as described (Hughes et al., Bioorg Med Chem. 2012, 20(10):3298-3305) on gamma phosphate linked ATP Sepharose. Following extensive washing with physiological buffers to remove non-specifically associated proteins, the resin was divided equally and interrogated with the indicated compounds in parallel as described (Hughes et al 2012). All eluted proteins were characterized by SDS-PAGE and silver staining, and then identified by mass spectrometry. […] Key: GRP94, glucose regulated protein 94; Hsp90, heat shock protein 90; LAPT, lapatinimb; Hsp90 STD, purified Hsp90; 17-AAG, derivatized form of geldanamycin, BLK, vehicle control consisting of buffer containing 10% DMSO used to solubilize all compounds included in the test.

GRP94 = biological target: T1, GRP94 (Sus scrofa, UniProt Q29092); assay: Elution of pig mammary gland proteins from gamma phosphate linked ATP Sepharose with increasing amounts of compound; format: binding; conditions: FIG. 2
T1 construct: The ATP resin was charged with the pig mammary gland extract; from tissue; host or cells: pig mammary gland extract captured on gamma phosphate linked ATP Sepharose
Description: (§1) The ATP resin was charged with the pig mammary gland extract and aliquots were distributed into individual wells.

Hsp90 [1] = assay: as above; format: binding; conditions: FIG. 2
Description: as §1

Hsp90 [2] = assay: Affinity resin capture of Hsp90 from pig mammary gland extract (SDS-PAGE silver stain, MS sequencing); format: binding; conditions: 1 mM compound 5 pre-incubated in the tissue extract
Protocol: Several media were prepared as described in Example 7, using compounds 6, 7, 8 and 9. These resins were termed A, B, C and D respectively. To prepare the resin in each case, the appropriate compound was added at 1-10 μmol/gram of resin in minimal methanol.
The ability of each resin to selectively capture Hsp90 from pig mammary gland extract, a tissue shown to be high in ATP binding proteins including native forms of Hsp90, GRP94 and TRAP1, was evaluated. The resin was incubated in the protein solution then washed with a high salt buffer. The bound proteins were removed via an SDS boil procedure, separated by SDS-PAGE electrophoresis, located by silver staining and identified using mass spectrometry (MS) sequencing. […] In the case of resin E (Example 7), bound proteins were eluted with 25 mM sodium dithionite in phosphate-buffered saline.

MCF7 cells = assay: Compound 10 fluorescence in MCF7 cells with anti-Hsp90 antibody or competing compound 5; format: cell-based; conditions: FIG. 6C
Protocol: In FIG. 6B, the compound was added in the presence of an antibody to Hsp90. […] DAPI (blue) highlights the nucleus of the cell. In FIG. 6 the green staining from compound 10 fluorescence appears white, while blue from the DAPI-stained nuclei appears gray.

BT474 cells = assay: Competition of compound 10 signal by compound 5 in permeabilized cells (plate reader fluorescence); format: cell-based; conditions: compound 5 0-10 μM; escin; 30 minutes; Ex488/Em522 nm; FIG. 9
Protocol: BT474 cells were incubated with varying doses of compound 5 (0 μM, 0.01 μM, […], 1 μM and 10 μM) in the presence of a fixed concentration of compound 10 ([…]) and a cell permeabilizing agent (escin) for 30 minutes. The cells were then washed to remove the free probe and cell extracts prepared from the homogenized cells. The amount of drug uptake was then measured by fluorescence (Ex488/Em522 nm) in a micro plate fluorescence reader.

T1 sequence (Q29092 22-804): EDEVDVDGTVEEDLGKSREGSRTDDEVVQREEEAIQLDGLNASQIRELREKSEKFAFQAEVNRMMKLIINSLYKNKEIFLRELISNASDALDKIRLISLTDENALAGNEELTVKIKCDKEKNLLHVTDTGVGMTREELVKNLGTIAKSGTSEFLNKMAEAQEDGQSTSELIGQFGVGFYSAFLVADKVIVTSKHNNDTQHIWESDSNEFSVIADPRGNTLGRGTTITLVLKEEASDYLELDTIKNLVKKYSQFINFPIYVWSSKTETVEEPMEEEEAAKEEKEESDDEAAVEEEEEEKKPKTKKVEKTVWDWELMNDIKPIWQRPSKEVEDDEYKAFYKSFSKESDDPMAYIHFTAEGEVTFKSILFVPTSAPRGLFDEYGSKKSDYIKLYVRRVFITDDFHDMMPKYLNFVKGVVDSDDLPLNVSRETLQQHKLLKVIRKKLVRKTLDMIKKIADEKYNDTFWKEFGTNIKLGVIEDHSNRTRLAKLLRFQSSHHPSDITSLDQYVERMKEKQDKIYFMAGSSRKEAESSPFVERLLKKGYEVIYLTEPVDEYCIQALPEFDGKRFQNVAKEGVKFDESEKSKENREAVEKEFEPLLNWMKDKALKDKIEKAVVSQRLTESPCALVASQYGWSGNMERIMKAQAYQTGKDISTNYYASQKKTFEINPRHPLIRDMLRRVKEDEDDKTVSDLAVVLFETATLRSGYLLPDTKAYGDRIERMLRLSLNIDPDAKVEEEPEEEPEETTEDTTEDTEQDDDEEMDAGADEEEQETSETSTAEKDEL

With `Cc1nn(-c2ccc(C(N)=O)c(NCCCOCCOCCOCCOCCOCCCNc3cc(-n4nc(C)c5c4CC(C)(C)CC5=O)ccc3C(N)=O)c2)c2c1C(=O)CC(C)(C)C2` [Compound 20, 2,2′-(4,7,10,13,16-pentaoxanonadecane-1,19-diylbis(azanediyl))bis(4-(3,6,6-trimethyl-4-oxo-4,5,6,7-tetrahydro-1H-indazol-1-yl)benzamide)] the “proteins recognized (eluted from ATP Sepharose)” value (“proteins recognized” below) (Hsp90 and GRP94) was “only recognize Hsp90”.

With `CC1(C)CC(=O)c2c(C(F)(F)F)nn(-c3ccc(C(N)=O)c(N[C@H]4CC[C@H](O)CC4)c3)c2C1` [SNX-2112] the “elution of GRP94 from ATP resin” value (GRP94) was “weaker affinity”.

For `Cc1nn(-c2ccc(C(N)=O)c(NCCCOCCOCCOCCOCCOCCCNc3ccc([N+](=O)[O-])c4nonc34)c2)c2c1C(=O)CC(C)(C)C2` [Compound 11, 2-((19-((7-nitrobenzo[c][1,2,5]oxadiazol-4-yl)amino)-4,7,10,13,16-pentaoxanonadecyl)amino)-4-(3,6,6-trimethyl-4-oxo-4,5,6,7-tetrahydro-1H-indazol-1-yl)benzamide], the “proteins recognized” value (Hsp90 and GRP94) was “only recognize Hsp90”.

For `CC(C)NCCCn1c(Sc2cc3c(cc2I)OCO3)nc2c(N)ncnc21` [PU-H71], the “elution of GRP94 from ATP resin” value (GRP94) was “strong potency”, the “elution of Hsp90 from ATP resin” value (Hsp90 [1]) was “strong potency” and the “proteins recognized” value (Hsp90 and GRP94) was “specificity for both Hsp90 and GRP94”.

For `Cc1nn(-c2ccc(C(N)=O)c(NCCCOCCOCCOCCOCCOCCCN)c2)c2c1C(=O)CC(C)(C)C2` [Compound 8, 2-((19-Amino-4,7,10,13,16-pentaoxanonadecyl)amino)-4-(3,6,6-trimethyl-4-oxo-4,5,6,7-tetrahydro-1H-indazol-1-yl)benzamide], the “elution of GRP94 from ATP resin” value (GRP94) was “essentially no elution” and the “proteins recognized” value (Hsp90 and GRP94) was “only recognize Hsp90”.

With “2-((19-di(ferrocenemethylamino)-4,7,10,13,16-pentaoxanonadecyl)amino)-4-(3,6,6-trimethyl-4-oxo-4,5,6,7-tetrahydro-1H-indazol-1-yl)benzamide [Compound 27]” the “proteins recognized” value (Hsp90 and GRP94) was “only recognize Hsp90”.

“17-alkylamino-17-desmethoxygeldanamycin [Compound 17-AAG, reference compound]” was tested, and the “proteins recognized” value (Hsp90 and GRP94) was “specificity for both Hsp90 and GRP94”.

In the case of `Cc1nn(-c2ccc(C(N)=O)c(N[C@H]3CC[C@H](N)CC3)c2)c2c1C(=O)CC(C)(C)C2` [Compound 28, 2-(((1r,4r)-4-aminocyclohexyl)amino)-4-(3,6,6-trimethyl-4-oxo-4,5,6,7-tetrahydro-1H-indazol-1-yl)benzamide], the “proteins recognized” value (Hsp90 and GRP94) is reported as “only recognize Hsp90”.

`Cc1nn(-c2ccc(C(N)=O)c(N[C@H]3CC[C@H]([N+](C)(C)C)CC3)c2)c2c1C(=O)CC(C)(C)C2` [Compound 29, (1r,4r)-4-((2-carbamoyl-5-(3,6,6-trimethyl-4-oxo-4,5,6,7-tetrahydro-1H-indazol-1-yl)phenyl)amino)-N,N,N-trimethylcyclohexanaminium] was tested, and the “proteins recognized” value (Hsp90 and GRP94) was “only recognize Hsp90”.

`Cc1nn(-c2ccc(C(N)=O)c(NCCCOCCOCCOCCOCCO)c2)c2c1C(=O)CC(C)(C)C2` [Compound 19, 2-((1-hydroxy-3,6,9,12-tetraoxapentadecan-15-yl)amino)-4-(3,6,6-trimethyl-4-oxo-4,5,6,7-tetrahydro-1H-indazol-1-yl)benzamide] was tested, and the “proteins recognized” value (Hsp90 and GRP94) was “only recognize Hsp90”.

In the case of `Cc1nn(-c2ccc(C(N)=O)c(N[C@H]3CC[C@H](O)CC3)c2)c2c1C(=O)CC(C)(C)C2` [Compound 5, 2-(((1r,4r)-4-Hydroxycyclohexyl)amino)-4-(3,6,6-trimethyl-4-oxo-4,5,6,7-tetrahydro-1H-indazol-1-yl)benzamide, reference compound], the “competition of protein binding to the resins” value (Hsp90 [2]) is reported as “clean exclusion of Hsp90 but not other proteins”, the “proteins recognized” value (Hsp90 and GRP94) is reported as “specificity for both Hsp90 and GRP94” and the “competition of compound 10 fluorescence signal” value (MCF7 cells) is reported as “competes away the fluorescence signal”. The “competition of the signal from compound 10” value (BT474 cells) was “effectively competed”.
